Source: patent US20260015662A1, “DETECTING ANTIBIOTIC AND/OR CHEMICAL USE IN ANIMALS USING EPIGENETIC MEANS” (Evonik Operations GmbH, priority 2022, published 2026)
Where a name gives a salt, the structure may show the parent alone.

Experiments:
[1] = cited from earlier work; for Absorption: absorption level of the antibiotic
[2] = tested on: IPEC2 cells (swine intestinal cell line IPEC2-J2); test: Methylated DNA quantification in swine intestinal cell line treated with antibiotics; format: cell-based; settings: for average amount of methylated DNA: Tet 200 mg/L, Amx 100 mg/L, Col 480 mg/L, ± SEM; for size of the reduction in overall DNA methylation (rank among the three antibiotics): within 24 hrs of treatment, compared with antibiotic free control cells
Experimental: An in vitro to investigate the effects of three different antibiotics on the DNA methylation quantity in a swine intestinal cell line.
An immortalised cell line from swine intestines (IPEC2-J2 ACC 701 from DSMZ cell culture) was utilized in the 7th passage. In a 12 well, flat-bottom plate, 1×10^4 cel|s/well were seeded with DPBS D8537 (Sigma-Aldrich) and initially incubated for 4 days. After incubation cells were treated with one of 4 treatments for up to an additional 4 days: • 1) Incubation for 4 days without any antibiotics • 2) Incubation for 1 day with antibiotics followed by incubation for 1-3 days in antibiotic free media • 3) Incubation for 2 days with antibiotics followed by incubation for 1-2 days in antibiotic free media • 4) Incubation for 3 days with antibiotics followed by incubation for 1 day in antibiotic free media
Treatments 2, 3 and 4 were repeated with 3 different antibiotic treatments; tetracycline hydrochloride at 200 mg/L, Amoxicillin at 100 mg/L and Colistin at 480 mg/L. Duplicate cells per treatment were harvested at each time point. Media was removed, cells were washed once with DPBS, and a cell scraper was used to disassociate the cells from the bottom of the well. Cell pellets were then stored at −80° C. until DNA could be isolated using the NuceloSpin® DNA Stool Kit (Macherey and Nagel). Methylation grade of 100ng of isolated DNA was determined using the Imprint® Methylated DNA Quantification Kit (Sigma-Aldrich) which compared samples to a standard curve of known methylated DNA.

[3] = 1 day with antibiotic before washing, harvested Day 1
[4] = 1 day with antibiotic before washing, harvested Day 2
[5] = 1 day with antibiotic before washing, harvested Day 3
[6] = 1 day with antibiotic before washing, harvested Day 4
[7] = 2 days with antibiotic before washing, harvested Day 2
[8] = 2 days with antibiotic before washing, harvested Day 3
[9] = 2 days with antibiotic before washing, harvested Day 4
[10] = 3 days with antibiotic before washing, harvested Day 3
[11] = 3 days with antibiotic before washing, harvested Day 4

Compound	Absorption [1]	Recommended Withdrawal for Broilers [1]	average amount of methylated DNA [2, 3] [ng/100 ng isolated DNA]	average amount of methylated DNA [2, 4] [ng/100 ng isolated DNA]	average amount of methylated DNA [2, 5] [ng/100 ng isolated DNA]	average amount of methylated DNA [2, 6] [ng/100 ng isolated DNA]	average amount of methylated DNA [2, 7] [ng/100 ng isolated DNA]	average amount of methylated DNA [2, 8] [ng/100 ng isolated DNA]	average amount of methylated DNA [2, 9] [ng/100 ng isolated DNA]	average amount of methylated DNA [2, 10] [ng/100 ng isolated DNA]	average amount of methylated DNA [2, 11]	size of the reduction in overall DNA methylation (rank among the three antibiotics) [2]
CC[C@H]1OC(=O)C[C@@H](O)[C@H](C)[C@@H](O[C@@H]2O[C@H](C)[C@@H](O[C@H]3C[C@@](C)(O)[C@@H](O)[C@H](C)O3)[C@H](N(C)C)[C@H]2O)[C@@H](CC=O)C[C@@H](C)C(=O)/C=C/C(C)=C/[C@@H]1CO[C@@H]1O[C@H](C)[C@@H](O)[C@@H](OC)[C@H]1OC [Tylosin]	Systemic	5 days										
Colistin			26.1 ± 5.0	11.7 ± 6.8	19.6 ± 5.5	24.9 ± 0.8	29.5 ± 3.8	1.4 ± 7.9	19.0 ± 5.4	29.1 ± 18.0	28.5 ± 16.4 ng/100 ng isolated DNA	finally
CC1(C)S[C@@H]2[C@H](NC(=O)[C@H](N)c3ccc(O)cc3)C(=O)N2[C@H]1C(=O)O [Amoxicillin]	Systemic	1 to 4 days	4.1 ± 8.9	12.3 ± 3.2	20.4 ± 8.3	19.0 ± 2.1	20.9 ± 10.4	9.8 ± 4.7	21.3 ± 3.4	26.0 ± 10.2	10.2 ± 9.4 ng/100 ng isolated DNA	
Bacitracin Methylene Disalicylate [BMD]	Local	None required										
CN(C)[C@@H]1C(O)=C(C(N)=O)C(=O)[C@@]2(O)C(O)=C3C(=O)c4c(O)cccc4[C@@](C)(O)[C@H]3C[C@@H]12 [Tet, tetracycline hydrochloride]			−5.6 ± 2.9	12.0 ± 6.9	18.2 ± 16.0	25.8 ± 22.4	0.1 ± 8.1	−8.6 ± 11.1	7.4 ± 9.7	6.0 ± 13.2	21.7^3 ng/100 ng isolated DNA	largest
